The ED50 is the dose at which the effect has come halfway, by size or by number of responders.

Structures are written as SMILES.

For the experiment, the system named is Rat Paw Edema. The experiment can be described thus: Rat paw edema assay (carrageenan). The format is in vivo, rat (Male Sprague-Dawley). Particulars: po, p.o. 1 h before subplantar carrageenan (500 μg per paw), paw volume at 3 h, read-out: Rat Paw Edema ED50, dose of prodrug required to reduce edema formation by 50% as compared to vehicle control. As for the experimental part:
Male Sprague-Dawley rats (150-200 g) are fasted overnight and are given, p0, either vehicle (1% methocel or 5% Tween 80) or a test compound. One hr later, a line is drawn using a permanent marker at the level above the ankle in one hind paw to define the area of the paw to be monitored. The paw volume (V0) is measured using a plethysmometer (Ugo-Basile, Italy) based on the principle of water displacement. The animals are then injected subplantarly with 50 μl of 1% carrageenan solution in saline (FMC Corp, Me.) into the paw using an insulin syringe with a 25-gauge needle (i.e. 500 μg carrageenan per paw). Three hr later, the paw volume (V3) is measured and the increases in paw volume (V3 - VO) are calculated. The animals are sacrificed by CO2 asphyxiation and the absence or presence of stomach lesions scored. Data is compared with the vehicle-control values and percent inhibition calculated. All treatment groups are coded to eliminate observer bias.
Compounds of the present invention are prodrugs of inhibitors of COX-2 and are thereby useful in the treatment of COX-2 mediated diseases as enumerated above. The extent of conversion of these compounds to the active COX-2 inhibitors may be seen in the representative results shown in Table III along with their antiinflammatory activity. The plasma levels indicated are the maximum rat plasma concentrations of the active COX-2 inhibitor observed when the rat was treated with a 20 mg/kg oral dose of the indicated prodrug. The ED50 values in the rat paw edema assay represent the dose of prodrug required to reduce edema formation by 50% as compared to the vehicle control.
Consider `CC(C)(O)/C(=C(\CO)c1cccc(F)c1)c1ccc(S(C)(=O)=O)cc1` [Example 1, 2-(3-Fluorophenyl)-4-methyl-3-(4-(methylsulfonyl)-phenyl)-2-(Z)-penten-1,4-diol], for which the 50% effective dose (ED50) worked out at 10 mg/kg.
As for `COC(C)(C)/C(=C(\C(=O)N(C)C)c1cccc(F)c1)c1ccc(S(C)(=O)=O)cc1` [Example 4, N,N-Dimethyl-2-(3-fluorophenyl)-4-methoxy-4-methyl-3-(4-(methylsulfonyl)phenyl)-2-(Z)-pentenamide], the figure is 1.6 mg/kg; as for `COC(=O)/C(=C(/c1ccc(S(C)(=O)=O)cc1)C(C)(C)OC)c1cccc(F)c1` [Example 6, Methyl 2-(3-fluorophenyl)-4-methoxy-4-methyl-3-(4-(methylsulfonyl)phenyl)-2-(Z)-pentenoate], 2.1 mg/kg.

The values are drawn from US5925631A, “Alkylated styrenes as prodrugs to COX-2 inhibitors” (Merck & Co., Inc., priority 1998, dated 1999).
